The conditions of data set [1]: cited from earlier work.
In data set [2] the test system is VEGF-defensin ID8 ovarian cells. Description: Ascites fluid volume in the ID8 model of ovarian cancer. It is filed as in vivo. The note with it: mice drained at week 6 after injection; same regimen; vs untreated (Mock) or single agent. As for the experimental part: Mice were injected with 2.5×10^6VEGF-defensin ID8 ovarian cells i.p. Three days later, mice began treatment with 0.5 mg/kg 5-azacytidine (AZA) for 5 days per week. The next week the mice were treated with either 2 mg/kg MS275 or ITF 5 days a week, and the treatments alternated by week until the end of the experiment. Mice developed ascites fluid by week 4.5, and were drained and the ascites volume was measured. Ascites volume from mice drained at week 6 after injection.

Data set [3] deals with Human lung cancer cell lines H23 and A549. Description: Expression of anti-viral genes and cancer testis antigens after AZA priming and HDACi treatment. It is filed as cell-based. The note with it: for expression of anti-viral genes: FIG. 4A; for expression of cancer testis antigens: FIG. 4B. From the text:
FIGS. 4A and 4B. […] Human lung cancer cell lines H23 and A549 were primed by treatment with AZA (red line) for 5 days followed by 3-5 days of treatment with the HDACi. For many genes, addition of an HDACi to AZA increases gene expression above levels attained by AZA alone.

Where [4] appears, read: HDACi in combination with AZA: AZA priming 5 days, then 3-5 days HDACi.

Each structure is given as a SMILES string. Like-named read-outs stand apart in the source and are kept apart here.

As to `Nc1ncn([C@@H]2O[C@H](CO)[C@@H](O)[C@H]2O)c(=O)n1` [AZA, 4-amino-1-β-D-ribofuranozyl-s-triazin-2(1H)-one], the solubility result in data set [1] (5% Tween 80 in water) is reported as “sparingly soluble”; in data set [1] (5% dextrose in water) it was “sparingly soluble”; in data set [1] (N-methyl-2-pyrrolidone) it was “sparingly soluble”; in data set [1] (acetone), “insoluble”; in data set [1] (dimethylsulfoxide (DMSO)), “soluble”; in data set [1] (ethanol/water (50/50)), “slightly soluble”. Further, the solubility result in data set [1] (ethanol) is given as “insoluble”; in data set [1] (methyl ketone) it was “insoluble”; in data set [1] (normal saline), “sparingly soluble”; in data set [1] (polyethylene glycol), “slightly soluble”; in data set [1] (propylene glycol), “slightly soluble”; in data set [1] (water-saturated octanol) it was “sparingly soluble”. The solubility result in data set [1] (water) is on record as “sparingly soluble”. The ascites fluid volume entry in data set [2] is on record as “significantly reduced ascites volume compared to Mock”.
Consider `Nc1ccccc1NC(=O)c1ccc(CNC(=O)OCc2cccnc2)cc1` [Entinostat], for which the entries for the “expression of anti-viral genes” value in data set [3] (setting [4]) and in data set [3] (HDACi used as single agent) were “increase expression” and “NOT”, respectively. The results for the “expression of cancer testis antigens” value in data set [3] (setting [4]) and in data set [3] (HDACi used as single agent) were “increase expression” and “NOT”, respectively.
As to `CCN(CC)Cc1ccc2cc(COC(=O)Nc3ccc(C(=O)NO)cc3)ccc2c1.Cl` [Givinostat, diethyl-[6-(4-hydroxycarbamoyl-phenylcarbamoyloxymethyl)-naphthalen-2-ylmethyl]-ammonium chloride], the entries for the “expression of anti-viral genes” value in data set [3] (setting [4]) and in data set [3] (HDACi used as single agent) were “increase expression” and “NOT”, respectively. Moreover, the “expression of cancer testis antigens” value in data set [3] (setting [4]) was “increase expression”; in data set [3] (HDACi used as single agent), “NOT”.
